Here are results for 1 compound from patent US11066386B2, “CGRP receptor antagonists” (Eli Lilly and Company, priority 2017, dated 2021).

Data set [1] concerns the target T1, hCGRP (human calcitonin gene-related peptide) receptor (Homo sapiens, UniProt O60894+Q16602).
T1 construct: Cultured SK-N-MC neuroblastoma cells that endogenously express the hCGRP receptor (ATCC); host or cells: SK-N-MC neuroblastoma cells
Kind of data set: Inhibition of cAMP production by CGRP receptor antagonists (HTRF) in SK-N-MC cells. The settings on record: human CGRP 0.8 nM as agonist, mean ±SEM, n=16, read-out: Kb measured at human CGRP. The format is cell-based. From the text: Inhibition of cAMP Production by CGRP Receptor Antagonists
The hCGRP (human calcitonin gene-related peptide) receptor is functionally coupled to the Gas proteins. Stimulation of hCGRP results in an increased synthesis of intracellular cAMP and can be blocked by the addition of receptor antagonists. Receptor activity is thus a reflection of the amount of cAMP present within cells which can be detected using standard in vitro technology. […]
Data Analysis: The amount of intracellular cAMP is quantitated using HTRF technology (Cisbio) as per vendor instructions. […] The HTRF signal is immediately detected using an ENVISION® plate reader (Perkin-Elmer) to calculate the ratio of fluorescence at […]. […] Relative EC50 values are calculated from the top-bottom range of the concentration response curve using a four-parameter logistic curve fitting program (ACTIVITYBASE® v5.3.1.22 or GENEDATA SCREENER® v12.0.4), and Kb values are estimated as agonist-corrected IC50 values using the equation: Kb=(IC50)[1+([Agonist]/EC50)]. […]

A short description of data set [2]: In vivo determination of unbound brain-to-plasma partition coefficient (Kp,uu,brain) in rats. Particulars: 10 mg/kg oral; for concentration at 0.5 h / concentration at 2 h: male, Sprague-Dawley, oral, 10 mg/kg. As to the method:
In Vivo Determination of Unbound Brain-to-Plasma Partition Coefficient (Kp,uu,brain) in Rats
Unbound brain-to-plasma partition coefficient (Kp,uu,brain) is one of the key pharmacokinetic parameter for evaluating a compound's ability to cross the blood-brain barrier (BBB) (Hammarlund-Udenaes, M.; Friden, M.; Syvanen, S.; Gupta, A. On the Rate and Extent of Drug Delivery to the Brain. Pharm. Res. 2008, 25 (8), 1737-1750).
Study populations: Animal studies are performed under protocols approved by the Covance Institutional Animal Care and Use Committee. Male Sprague-Dawley rats weighing 250-350 g are obtained from Harlan Sprague Dawley Inc. (Indianapolis, Ind.). Animals have access to food and water ad libitum before and during the study.
Dose administration: Animals each receive 10 mg/kg of the CGRP receptor antagonist compound of Example 1, administered orally in 10 ml/kg of hydroxyethylcellulose 1% w/v/polysorbate 80 0.25% v/v/Antifoam 1510-US 0.05% v/v/in purified water (probe sonicated).
Pharmacokinetic sampling: Three animals per time point are used. The blood (by cardiac puncture) and brain samples are collected at 0.5 and 2 h post dose. The blood samples are treated with K3-EDTA anticoagulant, and plasma is obtained by centrifugation at 1600 g for 10 minutes. The brain samples are weighed and homogenized, without perfusion. All samples are stored at −70° C. until analysis by LC-MS/MS to determine the concentration of the compound of Example 1 in plasma and brain at each time point.
Kp,uu,brain is calculated for each time point from the expression below where individual components are derived from a combination of in vitro and in vivo measurements carried out as described above:
[formula] where Ctotal,brain, Cu,brain, Ctotal,plasma and Cu,plasma are total and unbound brain and plasma concentrations, and fu,brain and fu,plasma are fractions unbound in brain and plasma, respectively.

Data set [3] can be described thus: Rat plasma and brain homogenate protein binding by equilibrium dialysis. The format is in vitro ADME. As to the method:
Determination of plasma and brain protein binding: Rat plasma and brain homogenate protein in vitro binding is determined using equilibrium dialysis, as described elsewhere [Zamek-Gliszczynski et al., J Pharm Sci, 101:1932-1940, 2012]. The results are reported as fraction unbound in plasma (fu,plasma) and brain (fu,brain), which are then utilized to calculate Kp,uu,brain, as described in Table 2. Rat fu,plasma and fu,brain of the compound of Example 1 are determined to be 0.277 and 0.126, respectively.

The target in data set [4] is T2, ABCB1, Human P-Glycoprotein (Pgp) (Homo sapiens, UniProt P08183).
T2 construct: host or cells: MDCKII cells
Kind of data set: In vitro determination of efflux by Pgp, bi-directional transport across MDCKII cells. It counts as in vitro ADME. Particulars: MDCKII cells expressing human ABCB1, 5 μM substrate, 60 min. The protocol:
In Vitro Determination of Efflux by ABCB1, Human P-Glycoprotein (Pgp)
Cell Culture: MDCKII cells stably expressing human wild-type ABCB1 (Pgp) are obtained from the Netherlands Cancer Institute (Amsterdam, The Netherlands). MDCK cells are maintained as described previously (Desai et al., Mol Pharm 10:1249-1261, 2013).
Bi-directional transport across MDCK cells: The assay is essentially conducted as described previously (Desai et al., Mol Pharm 10:1249-1261, 2013). Transport is measured in both directions across uninhibited and inhibited cell monolayers using a substrate concentration of 5 μM diluted from a 10 mM DMSO stock solution (final DMSO concentration of 0.05%) and a single 60-min time interval. […] The apparent permeability coefficients (Papp) are estimated as the slope of the mass transported per 60 min relative to the total recovered mass. The basal-to-apical (B-A)/apical-to-basal (A-B) Papp ratios are calculated in the absence or presence of inhibitor in each cell line for net efflux ratio (NER).

Where two headings read alike, the source gives them in different places.

T2 sequence (P08183 whole entry): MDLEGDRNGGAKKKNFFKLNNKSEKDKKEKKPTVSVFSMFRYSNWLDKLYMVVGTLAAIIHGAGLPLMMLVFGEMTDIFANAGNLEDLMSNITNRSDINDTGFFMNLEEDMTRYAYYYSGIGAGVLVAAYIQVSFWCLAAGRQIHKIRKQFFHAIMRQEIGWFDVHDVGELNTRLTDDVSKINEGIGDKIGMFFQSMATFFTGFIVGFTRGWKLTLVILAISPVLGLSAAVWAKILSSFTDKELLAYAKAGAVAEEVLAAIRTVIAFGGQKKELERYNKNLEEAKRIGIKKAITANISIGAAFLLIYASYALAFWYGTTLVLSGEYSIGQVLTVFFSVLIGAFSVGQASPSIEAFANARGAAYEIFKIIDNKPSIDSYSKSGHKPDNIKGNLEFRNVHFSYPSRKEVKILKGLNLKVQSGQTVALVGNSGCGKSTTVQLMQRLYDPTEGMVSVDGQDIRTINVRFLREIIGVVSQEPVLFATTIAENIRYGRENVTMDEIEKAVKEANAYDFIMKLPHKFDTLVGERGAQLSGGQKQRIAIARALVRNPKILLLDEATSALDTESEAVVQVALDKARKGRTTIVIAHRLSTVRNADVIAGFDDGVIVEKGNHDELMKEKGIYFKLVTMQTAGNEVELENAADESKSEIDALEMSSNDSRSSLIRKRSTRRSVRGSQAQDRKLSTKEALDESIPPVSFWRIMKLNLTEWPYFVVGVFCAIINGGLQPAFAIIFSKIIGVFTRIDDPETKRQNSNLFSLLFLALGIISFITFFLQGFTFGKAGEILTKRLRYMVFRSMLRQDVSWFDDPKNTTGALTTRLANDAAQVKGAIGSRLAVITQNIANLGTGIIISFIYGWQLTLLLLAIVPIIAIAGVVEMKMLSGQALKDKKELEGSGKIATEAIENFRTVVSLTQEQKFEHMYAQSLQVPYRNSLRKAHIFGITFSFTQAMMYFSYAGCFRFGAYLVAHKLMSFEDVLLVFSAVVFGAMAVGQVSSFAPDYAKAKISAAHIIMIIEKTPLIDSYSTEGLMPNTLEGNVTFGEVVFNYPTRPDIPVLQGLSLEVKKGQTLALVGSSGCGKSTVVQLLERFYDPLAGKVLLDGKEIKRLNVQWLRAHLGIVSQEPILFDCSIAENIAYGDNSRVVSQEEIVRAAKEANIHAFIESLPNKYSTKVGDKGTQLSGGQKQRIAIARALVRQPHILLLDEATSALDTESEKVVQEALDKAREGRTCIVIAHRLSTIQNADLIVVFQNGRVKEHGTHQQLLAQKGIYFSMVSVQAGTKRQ
T1 sequence (Q16602 23-461): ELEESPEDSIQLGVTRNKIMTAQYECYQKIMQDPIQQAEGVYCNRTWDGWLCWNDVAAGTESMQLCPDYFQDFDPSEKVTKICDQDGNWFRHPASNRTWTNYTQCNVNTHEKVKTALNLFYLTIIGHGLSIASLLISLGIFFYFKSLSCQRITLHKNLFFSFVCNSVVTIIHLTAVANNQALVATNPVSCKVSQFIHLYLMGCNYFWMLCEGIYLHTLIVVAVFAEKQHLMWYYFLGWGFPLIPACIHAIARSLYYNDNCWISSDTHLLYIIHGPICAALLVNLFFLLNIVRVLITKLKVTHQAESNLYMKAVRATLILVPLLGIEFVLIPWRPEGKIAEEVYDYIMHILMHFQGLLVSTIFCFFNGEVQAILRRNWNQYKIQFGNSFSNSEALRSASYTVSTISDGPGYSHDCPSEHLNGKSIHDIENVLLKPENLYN
T1 sequence (O60894 27-148): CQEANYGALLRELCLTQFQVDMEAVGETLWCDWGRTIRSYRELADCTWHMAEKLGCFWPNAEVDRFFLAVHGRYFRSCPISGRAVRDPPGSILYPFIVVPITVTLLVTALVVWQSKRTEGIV

For `Cc1cc(OCCc2ccc([C@@H](C)[C@]3(C)CC(=O)NC3=O)cc2)cc(C)n1` [Example 1, (3S)-3-[(1R)-1-[4-[2-[(2,6-dimethyl-4-pyridyl)oxy]ethyl]phenyl]ethyl]-3-methyl-pyrrolidine-2,5-dione], the Kb (commonly the equilibrium dissociation constant of an antagonist, usually derived from a functional assay) in data set [1] came to 0.31 ± 0.21 nM. The “Unbound brain conc. (Cu,brain)” value in data set [2] (male Sprague-Dawley rats, 0.5 hr, using rat fu,brain 0.126, mean +/- SD) worked out at 0.046 ± 0.009 µM; in data set [2] (male Sprague-Dawley rats, 2.0 hr, using rat fu,brain 0.126, mean +/- SD) it was 0.051 ± 0.01 µM. Further, the concentration at 0.5 h turned out to be 0.365 ± 0.067 µM in data set [2] (rat, brain, 0.5 hr, mean +/- SD, read-out: Total brain conc. (Ctotal,brain)); 0.046 ± 0.009 µM in data set [2] (rat, brain, 0.5 hr, using rat fu,brain 0.126, mean +/- SD, read-out: Unbound brain conc. (Cu,brain)); 0.497 ± 0.069 µM in data set [2] (rat, plasma, 0.5 hr, mean +/- SD, read-out: Total plasma conc. (Ctotal,plasma)); 0.138 ± 0.019 µM in data set [2] (rat, plasma, 0.5 hr, using rat fu,plasma 0.277, mean +/- SD, read-out: Unbound plasma conc. (Cu,plasma)). The concentration at 2 h in data set [2] (rat, brain, 2.0 hr, mean +/- SD, read-out: Total brain conc. (Ctotal,brain)) stood at 0.405 ± 0.083 µM; in data set [2] (rat, brain, 2.0 hr, using rat fu,brain 0.126, mean +/- SD, read-out: Unbound brain conc. (Cu,brain)), 0.051 ± 0.01 µM; in data set [2] (rat, plasma, 2.0 hr, mean +/- SD, read-out: Total plasma conc. (Ctotal,plasma)), 0.531 ± 0.129 µM; in data set [2] (rat, plasma, 2.0 hr, using rat fu,plasma 0.277, mean +/- SD, read-out: Unbound plasma conc. (Cu,plasma)), 0.147 ± 0.036 µM. The Kp uu at 0.5 h in data set [2] (rat, brain/plasma, male Sprague-Dawley rats, 0.5 hr, mean +/- SD) was 0.34 ± 0.05. Further, the Kp uu at 2 h in data set [2] (rat, brain/plasma, male Sprague-Dawley rats, 2.0 hr, mean +/- SD) amounted to 0.35 ± 0.01. In data set [3] (rat brain homogenate), this compound had a fraction unbound in brain (fu,brain) of 0.126. The fraction unbound (in general, the share of the substance not bound to proteins or other matrix) in data set [3] (rat plasma, read-out: fraction unbound in plasma (fu,plasma)) came to 0.277. In data set [4], the “net efflux ratio (NER) for efflux by Pgp” value is 4.1.
